Laboratory results as given in PubChem BioAssay (NCI).
Several values for one entry are separate records, joined by “and”; a condition that tells them apart may be missing. Equal values may be shown once.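 Compound exposure: 48 hours, 5 concentrations, 96-well plates. At the GI50, growth is halved. TGI: total growth inhibition.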

Tests used:
Assay in all cases: DTP human tumour cell line panel, 48 h
[1] = system: EKVX NSCLC
[2] = system: SK-MEL-2 melanoma
[3] = system: M14 melanoma
[4] = system: DU-145 prostate
[5] = system: SNB-75 CNS
[6] = system: SNB-19 CNS
[7] = system: SR leukemia
[8] = system: 786-0 renal
[9] = system: RPMI-8226 leukemia
[10] = system: K-562 leukemia
[11] = system: HL-60(TB) leukemia

Compound	TGI [1] [µM]	TGI [2] [µM]	TGI [3] [µM]	TGI [4] [µM]	TGI [5] [µM]	TGI [6] [µM]	TGI [7] [µM]	TGI [8] [µM]	TGI [9] [µM]	TGI [10] [µM]	TGI [11] [µM]	GI50 [2]	GI50 [11]	GI50 [6] [µM]	GI50 [9]	GI50 [5] [µM]
CCOc1nc2sc3c(c2c(=O)n1CCSSCCn1c(OCC)nc2sc4c(c2c1=O)CCCC4)CCCC3	> 100	> 100	> 100	> 100	> 100	> 100	> 100	> 100	> 100	> 100	–	–	–	–	–	–
C/C(=C\CC/C=C(\C)CC/C=C(\C)CCC1SC1(C)C)CC/C=C(\C)CCC1OC1(C)C (stereo not given)	> 100	> 100	> 100	–	> 100	> 100	> 100	> 100	> 100	> 100	> 100	–	–	–	–	–
COc1nc2c(c(=O)[nH]1)N=C(c1ccc(Cl)cc1)CC(c1ccccc1)N2 (stereo not given)	> 100	60.1	43	> 100	54.9	> 100	> 100	> 100	65.8	67.1	–	–	–	–	–	–
CCOC(=O)/C(=C\c1c(C)[nH]c2ccccc12)P(=O)(OCC)OCC	> 100	–	> 100	> 100	> 100	> 100	> 100	> 100	> 100	> 100	–	–	–	–	–	–
C[C@]12CC[C@H](O)CC1=CC[C@@H]1[C@@H]2CC[C@]2(C)NC(=O)/C(=C\c3ccccc3)C[C@@H]12	28.4	31.8	29.2	33.5	48.5	27.8	> 100	52	56	> 100	–	–	–	–	–	–
COc1cc(/C=N/n2c(C)n[nH]c2=O)cc(OC)c1OC	> 100	> 100	> 100	–	> 100	> 100	–	> 100	–	> 100	–	–	–	–	–	–
CC(C)=CCOc1ccc(-c2coc3cc4c(c(O)c3c2=O)C=CC(C)(C)O4)cc1	> 100	–	–	–	–	> 100	> 100	> 100	> 100	> 100	> 100	–	–	–	–	–
O=C1NC(N2CCCCC2)=N/C1=C\c1ccco1	> 100	> 100	> 100	> 100	–	> 100	> 100	> 100	> 100	–	> 100	–	–	–	–	–
COC(=O)CNC(=O)CSc1nnc(COc2ccc(Cl)cc2)n1-c1ccccc1	> 100	50.7	> 100	33.6	35.5	> 100	–	31.4	–	> 100	> 100	–	–	–	–	–
O=C(NC(CCCCN1C(=O)c2ccccc2C1=O)P(=O)(Oc1ccccc1)Oc1ccccc1)OCc1ccccc1 (stereo not given)	> 100	> 100	> 100	> 100	> 100	> 100	> 100	> 100	> 100	–	–	–	–	–	–	–
CC(=O)OCC1=CC2CCC3C(C)(CCC[C@]3(C)COC(C)=O)C23CC[C@H]1C3 (stereo not given in full)	> 100	> 100	> 100	–	> 100	> 100	76.5	> 100	63.1	73.3	53.6	–	–	–	–	–
COc1cc2c(cc1O)C(=O)O[C@@H]1CC=C3CCN(C)[C@H]3[C@H]21	> 25	> 25	> 25	> 25	> 25	> 25	> 25	> 25	> 25	> 25	–	–	–	–	–	–
Cc1cc(C)c(C(=O)C(C)C(c2ccccc2)c2ccc(Cl)cc2)c(C)c1 (stereo not given)	> 100	> 100	> 100	–	> 100	> 100	> 100	> 100	> 100	> 100	> 100	9.38 µM and 32.1 µM	> 100 µM and 39.6 µM	> 100	82.4 µM and 29.3 µM	–
CC1OC(CC2C=CCc3c(O)c4c(c(O)c32)C(=O)c2ccccc2C4=O)CC(NC(=O)C(F)(F)F)C1O (stereo not given)	25.7	30.2	16.1	–	5.8	18.7	13.5	23.2	28	20.6	26.7	–	–	–	–	–
CCCCCCCCCCCCCCCCCCOCC(O)CO (stereo not given)	> 14.1	> 25	–	–	24.8	> 25	–	–	> 25	> 25	> 21.4	–	–	–	–	–
CC(O)C1OC(n2ccc(=O)[nH]c2=O)CC1n1cncn1 (stereo not given)	> 100	> 100	> 100	–	> 100	> 100	> 100	> 100	> 100	> 100	> 100	–	–	–	–	> 100
COC1(C)CNCC(C)(C)NC(=O)C(C)(OC)CNCC(C)(C)NC1=O (stereo not given)	> 100	> 100	> 100	–	> 100	> 100	–	> 100	> 100	> 100	> 100	–	–	–	–	–
CC(C)(C)OC(=O)C1/C(=C/CBr)CN1C(=O)OC(C)(C)C (stereo not given)	37.3	–	41.9	–	–	32.5	–	23.2	18.1	7.54	7.5	–	–	–	–	–
CCOC(OC1=C(C#N)CCCC1)C(CC)[Se]c1ccccc1[N+](=O)[O-] (stereo not given)	70	> 100	37.8	–	49.5	72.5	38.9	34.2	43.4	> 100	46.1	–	–	–	–	–
CC(=O)OCC1OC(n2c(O)c(N=NC(N)=S)c3ccc([N+](=O)[O-])cc32)C(OC(C)=O)C1OC(C)=O (stereo not given)	> 100	47.2	> 100	–	82.8	> 100	60.2	44.4	> 100	> 100	62.7	–	–	–	–	–
O=C1c2c(O)cccc2Cc2cc(CO)cc(O)c21	9.62	–	10.9	–	5.44	36.6	12.1	11.4	7.34	> 100	3.1	–	–	–	–	–
CC(C)(C)NC(=S)N/N=C/c1ccccn1	> 100	> 100	> 41.9	> 100	> 100	> 100	–	> 100	3.83	–	–	–	–	–	–	–

Compound	TGI [1] [µM]	TGI [2] [µM]	TGI [3] [µM]	TGI [4] [µM]	TGI [5] [µM]	TGI [6] [µM]	TGI [7] [µM]	TGI [8] [µM]	TGI [9] [µM]	TGI [10] [µM]	TGI [11] [µM]	GI50 [2]	GI50 [11]	GI50 [6] [µM]	GI50 [9]	GI50 [5] [µM]
COC(=O)/C(=N\N)C(C(=O)C(=O)Nc1nc(=S)[nH][nH]1)c1nc2ccc([N+](=O)[O-])cc2[nH]c1=O (stereo not given)	> 100	> 100	> 100	–	> 100	> 100	> 100	> 100	> 100	> 100	> 100	–	–	–	–	–
CCC(=O)CCC1=Nc2nnc(CCCCc3nnc4n3C(=O)C(CCC(=O)CC)=N4)n2C1=O	> 100	> 100	> 100	–	> 100	> 100	–	> 100	> 100	> 100	> 100	–	–	–	–	–
COC(=O)C(C#N)C1NC(=O)c2ccccc21 (stereo not given)	> 100	–	> 100	–	> 100	> 100	> 100	> 100	> 100	> 100	> 100	–	–	–	–	–
O=C(NCc1ccccc1)C1C(=O)C(=O)N(Cc2ccccc2)C1=O (stereo not given)	> 100	> 100	> 100	–	> 100	> 100	> 100	> 100	> 100	> 100	> 100	–	–	–	–	–
C[C@H]1S[C@H](c2c(F)cccc2F)n2c1nc1ccccc12	> 100	> 100	> 100	> 100	> 100	> 100	–	> 100	> 100	> 100	–	–	–	–	–	–
COC(=O)[C@@H]1[C@H]2CC[C@]3(C)[C@@H](OC(C)=O)CC[C@H]3[C@@H]2CC[C@H]1C(C)=O	> 100	> 100	> 100	> 100	> 100	> 100	–	> 100	> 100	> 100	> 100	–	–	–	–	–
C/C=C1/C(=Cc2[nH]c(C=c3[nH]/c(=C/C4=NC(=O)C(CC)=C4C)c(C)c3CCC(=O)O)c(CCC(=O)O)c2C)NC(=O)C1C (stereo not given)	> 50	20.3	6.11	–	> 50	> 50	> 50	> 50	–	> 50	> 50	–	–	–	–	–
CC1N=C(c2ccccc2)OC1=O (stereo not given)	> 100	> 100	> 100	> 100	> 100	> 100	–	> 100	> 100	> 100	–	–	–	–	–	–
COc1cc2cnc3c4cc(OC)c(OC(C)C)cc4ccc3c2cc1OC	> 100	> 100	> 100	–	> 100	> 100	> 100	> 100	> 100	> 100	> 100	–	–	–	–	–
COC(=O)C1=COC2OC3CC1C2C(C)O3 (stereo not given)	> 100	> 100	> 100	> 100	–	> 100	> 100	> 100	> 100	–	> 100	–	–	–	–	–
CN1C(=O)N(c2nc3ccccc3[nH]2)C(C)(C)C1=O	> 100	> 100	> 100	–	> 100	> 100	> 100	> 100	> 100	> 100	> 100	–	–	–	–	–
O=C(CCN1CCCC1)c1ccc(Oc2ccc(F)cc2)cc1	> 100	> 100	99.5	> 100	> 100	> 100	–	31.8	–	> 100	37.8	–	–	–	–	–
C/C(=N/N)c1sc(-c2nc(C)c(/C(C)=N\N)s2)nc1C	> 100	> 100	> 100	–	> 100	> 100	36.4	> 100	> 63.9	> 100	> 69.3	–	–	–	–	–
COC(=O)[C@H](C)N(C)C(=O)[C@H](C)N1[C@@H](c2ccccc2)COC1(C)C	> 100	> 100	> 100	–	> 100	> 100	> 100	> 100	> 100	> 100	> 100	–	–	–	–	–
CC(=O)c1cccc(Nc2nc3ccccc3c3[nH]c4ccccc4c23)c1	21.4	24.2	> 100	> 100	–	> 100	–	11.7	9.25	> 100	–	–	–	–	–	–
COc1ccc(C2=NN(C(=O)c3ccc(Cl)cc3)C(O)(c3cc(F)c(Cl)cc3Cl)C2)cc1 (stereo not given)	> 100	> 100	> 100	> 100	> 100	> 100	–	> 100	> 100	> 100	> 100	–	–	–	–	–
COc1cc2c(cc1OC)[C@H]1C(COC(=O)Nc3ccccc3)CN1CC2 (stereo not given in full)	–	> 100	> 100	–	79.3	> 100	> 100	> 100	> 100	> 100	> 100	–	–	–	–	–
CCOC(=O)c1ccn2c(c1)c(C#N)c1nc3ccccc3nc12	> 100	> 100	> 100	–	> 100	> 100	> 100	> 100	> 100	> 100	> 100	–	–	–	–	–
C1=Cc2cccc3occ(c23)C=C1	> 100	> 100	> 100	> 100	–	> 100	43	> 100	–	40.1	48.2	–	–	–	–	–
Cn1c(N)c(/C=C/C(=O)Oc2ccccc2)c(=O)n(C)c1=O	> 100	> 100	> 100	> 100	66.5	> 100	–	> 100	> 100	> 100	> 100	–	–	–	–	–
CCOC(=O)c1ccc(N(CCOS(=O)(=O)c2ccc(C)cc2)CCOS(=O)(=O)c2ccc(C)cc2)cc1	> 100	66.8	> 100	–	–	> 100	–	–	> 100	> 100	–	–	–	–	–	–
